Experimental data from US5064813A, “Combination therapy for selected sex steroid dependent cancers” (priority 1989, dated 1991).

Legend:
advanced breast cancer = conditions: cited from earlier work
serum testosterone = assay: LHRH agonist-induced serum testosterone in the dog (RIA); type: in vivo; conditions: dogs; for prevention of the LHRH agonist-induced rise in serum testosterone: per os three times daily with 50 μg LHRH-A daily (ketoconazole 200 mg; aminoglutethimide 125 mg plus hydrocortisone), first days of treatment, FIG. 2 and 3
Method: Eighteen mongrel dogs weighing between 20-30 kg were randomly divided into three groups. The animals were housed one per cage and fed Purina Dog Chow and tap water ad libitum.
The animals of group 1 were injected daily (at 0700h) with 50 μg of the LHRH agonist [D-Trp^6, des-Gly-NH2^10 ]LHRH ethylamide (LHRH-A). In group 2, the animals were also injected daily with 50 μg of LHRH-A and took in addition 200 mg of ketoconazole per os at 0700h, 1500h and 2300h. The animals of group 3 received daily 50 μg of LHRH-A and 125 mg of aminoglutethimide per os at 0700h, 1500h, 2300h plus 10 mg of hydrocortisone twice daily.
Blood samples were collected at 0700h, 0900h, 1100h and 1500h one day before treatment and every day during the treatment. Plasma was extracted with diethyl ether and testosterone was separated on LH-20 columns before RIA measurements.

testosterone levels = conditions: rodents, in combination with chronic administration of Leuprolide; Santen et al. 1984; cited from earlier work

CC/C(=C(\c1ccccc1)c1ccc(OCCN(C)C)cc1)c1ccccc1 [Tamoxifen, (Z)-2-[4-(1,2-diphenyl-1-butenyl)phenoxy]-N,N-dimethylethanamine]
remission of advanced breast cancer, share of the patients treated (advanced breast cancer; Tamoxifen alone, Mouridsen et al. 1978): about 30% | objective remission of breast cancer (advanced breast cancer; combined use with the LH-RH agonist Buserelin, Klijn et al. 1984): 35%

CCNC(=O)[C@@H]1CCCN1C(=O)[C@H](CCCNC(=N)N)NC(=O)[C@H](CC(C)C)NC(=O)[C@@H](Cc1c[nH]c2ccccc12)NC(=O)[C@H](Cc1ccc(O)cc1)NC(=O)[C@H](CO)NC(=O)[C@H](Cc1c[nH]c2ccccc12)NC(=O)[C@H](Cc1c[nH]cn1)NC(=O)[C@@H]1CCC(=O)N1 [[D-Trp^6 des-Gly-NH2^10]LHRH ethylamide, [D-Trp^6, des-Gly-NH2^10]LHRH ethylamide]
level of serum testosterone on day 19 (serum testosterone; daily injection of 50 μg, day 19, FIG. 1): near-castration levels | increase in serum testosterone (serum testosterone; daily injection of 50 μg, one to six days following start of treatment, FIG. 1): approximately 500 % above control

CCC1(c2ccc(N)cc2)CCC(=O)NC1=O (stereo not shown) [aminoglutethimide, 3-(4-aminophenyl)-3-ethyl-2,6-piperidinedione]
prevention of the LHRH agonist-induced rise in serum testosterone (serum testosterone): almost completely prevented

CC(=O)N1CCN(c2ccc(OCC3COC(Cn4ccnc4)(c4ccc(Cl)cc4Cl)O3)cc2)CC1 (stereo not shown) [ketoconazole]
prevention of the LHRH agonist-induced rise in serum testosterone (serum testosterone): almost completely prevented | basal and Leuprolide stimulated testosterone levels (testosterone levels): decreased
